In patent US20020013306A1, “TERPYRIDINE-PLATINUM(II) COMPLEXES” (priority 1996, published 2002):

Columns and labels:
Type in all cases: cell-based
[1] = test system: SKOV3 human ovarian carcinoma cell line; test: 96 h growth inhibition, sulforhodamine B assay, SKOV3; details: 96 h exposure, v = variable (mean)
[2] = test system: CH1dox^R human ovarian carcinoma cell line (doxorubicin resistant); test: 96 h growth inhibition, sulforhodamine B assay, CH1doxR; details: for IC50: 96 h exposure, growth inhibition; for RF resistance factor: IC50 resistant line/IC50 parent line: CH1dox^R / CH1
[3] = test system: CH1 human ovarian carcinoma cell line; test: 96 h growth inhibition, sulforhodamine B assay, CH1; details: 96 h exposure, v = variable (mean)
[4] = test system: CH1cis^R human ovarian carcinoma cell line (cisplatin resistant); test: 96 h growth inhibition, sulforhodamine B assay, CH1cisR; details: for IC50: 96 h exposure, growth inhibition, v = variable (mean); for RF resistance factor: IC50 resistant line/IC50 parent line: CH1cis^R / CH1
[5] = test system: A2780 human ovarian carcinoma cell line; test: 96 h growth inhibition, sulforhodamine B assay, A2780; details: 96 h exposure, v = variable (mean)
T. cruzi (MHOM/BR/00/Y) = test: Trypanosoma cruzi in mouse peritoneal macrophages
Procedure: Trypanosoma cruzi: […] Drug activity was determined from the % of infected macrophages in treated cultures. Nifurtimox was used as the positive control.

[6] = test system: A2780cis^R human ovarian carcinoma cell line (cisplatin resistant); test: 96 h growth inhibition, sulforhodamine B assay, A2780cisR; details: for IC50: 96 h exposure, growth inhibition, v = variable (mean); for RF resistance factor: IC50 resistant line/IC50 parent line: A2780cis^R / A2780
[7] = test system: T. brucei (S427) bloodstream trypomastigotes; test: Trypanosoma brucei bloodstream trypomastigote culture

F[B-](F)(F)F.F[B-](F)(F)F.c1cc[n+]2c(c1)-c1cccc3[n+]1[Pt-2]2([n+]1ccsc1)[n+]1ccccc1-3 [Compound A6]
IC50 [1]: > 100 µM | IC50 [2]: 6.3 µM | RF resistance factor: IC50 resistant line/IC50 parent line [2]: 0.4 | IC50 [3]: 17 µM | IC50 [4]: 17 µM | RF resistance factor: IC50 resistant line/IC50 parent line [4]: 1 | IC50 [5]: 18.6 µM | % Inhibition, Trypanosoma cruzi (T. cruzi (MHOM/BR/00/Y); 1 μM): 0% | % Inhibition, Trypanosoma cruzi (T. cruzi (MHOM/BR/00/Y); 3 μM): 0% | % Inhibition, Trypanosoma cruzi (T. cruzi (MHOM/BR/00/Y); 10 μM): 5.0% | IC50 [6]: > 100 µM | RF resistance factor: IC50 resistant line/IC50 parent line [6]: 1 | % Inhibition, Trypanosoma brucei ([7]; 0.1 μM): 75.4% | % Inhibition, Trypanosoma brucei ([7]; 0.3 μM): 100% | % Inhibition, Trypanosoma brucei ([7]; 1 μM): 100% | % Inhibition, Trypanosoma brucei ([7]; 3 μM): 100% | % Inhibition, Trypanosoma brucei ([7]; 10 μM): 100% | % Inhibition, Trypanosoma brucei ([7]; 30 μM): 100%

CC#[N+][Pt-2]12[n+]3ccccc3-c3cccc([n+]31)-c1cccc[n+]12.F[B-](F)(F)F.F[B-](F)(F)F [Compound A8]
IC50 [1]: > 100 µM | IC50 [2]: 13 µM | RF resistance factor: IC50 resistant line/IC50 parent line [2]: 0.7 | IC50 [3]: 18 µM | IC50 [4]: 18.5 µM | RF resistance factor: IC50 resistant line/IC50 parent line [4]: 1 | IC50 [5]: 50 µM | % Inhibition, Trypanosoma cruzi (T. cruzi (MHOM/BR/00/Y); 1 μM): 0% | % Inhibition, Trypanosoma cruzi (T. cruzi (MHOM/BR/00/Y); 3 μM): 0% | % Inhibition, Trypanosoma cruzi (T. cruzi (MHOM/BR/00/Y); 10 μM): 4.0% | % Inhibition, Trypanosoma cruzi (T. cruzi (MHOM/BR/00/Y); 30 μM): 38.0% | IC50 [6]: 100 µM | RF resistance factor: IC50 resistant line/IC50 parent line [6]: 2 | % Inhibition, Trypanosoma brucei ([7]; 1 μM): 100% | % Inhibition, Trypanosoma brucei ([7]; 3 μM): 100% | % Inhibition, Trypanosoma brucei ([7]; 10 μM): 100% | % Inhibition, Trypanosoma brucei ([7]; 30 μM): 100%

F[B-](F)(F)F.F[B-](F)(F)F.[NH3+][Pt-2]12[n+]3ccccc3-c3cccc([n+]31)-c1cccc[n+]12 [Compound A12]
IC50 [1]: 15 µM | IC50 [2]: 3.75 µM | RF resistance factor: IC50 resistant line/IC50 parent line [2]: 0.7 | IC50 [3]: 5.2 µM | IC50 [4]: 4.5 µM | RF resistance factor: IC50 resistant line/IC50 parent line [4]: 0.9 | IC50 [5]: 11.5 µM | % Inhibition, Trypanosoma cruzi (T. cruzi (MHOM/BR/00/Y); 1 μM): 72.3% | % Inhibition, Trypanosoma cruzi (T. cruzi (MHOM/BR/00/Y); 3 μM): 100% | % Inhibition, Trypanosoma cruzi (T. cruzi (MHOM/BR/00/Y); 10 μM): 100% | % Inhibition, Trypanosoma cruzi (T. cruzi (MHOM/BR/00/Y); 30 μM): 100% | IC50 [6]: 23.5 µM | RF resistance factor: IC50 resistant line/IC50 parent line [6]: 2 | % Inhibition, Trypanosoma brucei ([7]; 0.1 μM): 83.8% | % Inhibition, Trypanosoma brucei ([7]; 0.3 μM): 98.5% | % Inhibition, Trypanosoma brucei ([7]; 1 μM): 100% | % Inhibition, Trypanosoma brucei ([7]; 3 μM): 100% | % Inhibition, Trypanosoma brucei ([7]; 10 μM): 100% | % Inhibition, Trypanosoma brucei ([7]; 30 μM): 100%

Cc1ccncc1.F[B-](F)(F)F.F[B-](F)(F)F.NNc1cc(-c2ccccn2)nc(-c2ccccn2)c1.[Pt+2] [R, (4-Picoline)(4′-Hydrazino-2,2′:6′,2″-Terpyridine) Platinum (II) Tetrafluoroborate]
IC50 [1]: 80 µM | IC50 [2]: 5.3 µM | RF resistance factor: IC50 resistant line/IC50 parent line [2]: 0.3 | IC50 [3]: 16 µM | IC50 [4]: 13.5 µM | RF resistance factor: IC50 resistant line/IC50 parent line [4]: 0.8 | IC50 [5]: 39 µM | % Inhibition, Trypanosoma cruzi (T. cruzi (MHOM/BR/00/Y); 1 μM): 60.8% | % Inhibition, Trypanosoma cruzi (T. cruzi (MHOM/BR/00/Y); 3 μM): 57.7% | % Inhibition, Trypanosoma cruzi (T. cruzi (MHOM/BR/00/Y); 10 μM): 65.8% | % Inhibition, Trypanosoma cruzi (T. cruzi (MHOM/BR/00/Y); 30 μM): 60.1% | IC50 [6]: 89 µM | RF resistance factor: IC50 resistant line/IC50 parent line [6]: 2.3 | % Inhibition, Trypanosoma brucei ([7]; 0.1 μM): 4.9% | % Inhibition, Trypanosoma brucei ([7]; 0.3 μM): 29.6% | % Inhibition, Trypanosoma brucei ([7]; 1 μM): 100% | % Inhibition, Trypanosoma brucei ([7]; 3 μM): 100% | % Inhibition, Trypanosoma brucei ([7]; 10 μM): 100% | % Inhibition, Trypanosoma brucei ([7]; 30 μM): 100%

CN(N)c1cc(-c2ccccn2)nc(-c2ccccn2)c1.Cc1ccncc1.F[B-](F)(F)F.F[B-](F)(F)F.[Pt+2] [S, (4-Picoline)(4′-(1 -Methylhydrazino)-2,2′:6′,2″-Terpyridine) Platinum (II) Tetra-fluoroborate]
IC50 [1]: > 100 µM | IC50 [2]: 14.5 µM | RF resistance factor: IC50 resistant line/IC50 parent line [2]: 0.2 | IC50 [3]: 65 µM | IC50 [4]: > 100 µM | IC50 [5]: 18 µM | % Inhibition, Trypanosoma cruzi (T. cruzi (MHOM/BR/00/Y); 1 μM): 60.9% | % Inhibition, Trypanosoma cruzi (T. cruzi (MHOM/BR/00/Y); 3 μM): 53.3% | % Inhibition, Trypanosoma cruzi (T. cruzi (MHOM/BR/00/Y); 10 μM): 53.3% | % Inhibition, Trypanosoma cruzi (T. cruzi (MHOM/BR/00/Y); 30 μM): 334% | IC50 [6]: 62 µM | RF resistance factor: IC50 resistant line/IC50 parent line [6]: 3.4 | % Inhibition, Trypanosoma brucei ([7]; 0.1 μM): 0% | % Inhibition, Trypanosoma brucei ([7]; 0.3 μM): 22.5% | % Inhibition, Trypanosoma brucei ([7]; 1 μM): 44.4% | % Inhibition, Trypanosoma brucei ([7]; 3 μM): 98.3% | % Inhibition, Trypanosoma brucei ([7]; 10 μM): 100% | % Inhibition, Trypanosoma brucei ([7]; 30 μM): 100%

Cc1ccncc1.Cc1ccncc1.F[B-](F)(F)F.F[B-](F)(F)F.F[B-](F)(F)F.F[B-](F)(F)F.O=C(CCCCC(=O)NNc1cc(-c2ccccn2)nc(-c2ccccn2)c1)NNc1cc(-c2ccccn2)nc(-c2ccccn2)c1.[Pt+2].[Pt+2] [V, Adipoyl-Linked-Bis[4-Picoline(4′-Hydrazino-2,2′:6′,2″-Terpyridine) Platinum(II)] Tetrafluoroborate]
IC50 [1]: 98 µM | IC50 [2]: 40 µM | RF resistance factor: IC50 resistant line/IC50 parent line [2]: 0.8 | IC50 [3]: 48 µM | IC50 [4]: 42 µM | RF resistance factor: IC50 resistant line/IC50 parent line [4]: 0.9 | IC50 [5]: 19 µM | % Inhibition, Trypanosoma cruzi (T. cruzi (MHOM/BR/00/Y); 1 μM): 0% | % Inhibition, Trypanosoma cruzi (T. cruzi (MHOM/BR/00/Y); 3 μM): 0% | % Inhibition, Trypanosoma cruzi (T. cruzi (MHOM/BR/00/Y); 10 μM): 0% | % Inhibition, Trypanosoma cruzi (T. cruzi (MHOM/BR/00/Y); 30 μM): 0% | IC50 [6]: 40 µM | RF resistance factor: IC50 resistant line/IC50 parent line [6]: 2.1 | % Inhibition, Trypanosoma brucei ([7]; 0.1 μM): 0% | % Inhibition, Trypanosoma brucei ([7]; 0.3 μM): 0% | % Inhibition, Trypanosoma brucei ([7]; 1 μM): 0% | % Inhibition, Trypanosoma brucei ([7]; 3 μM): 100% | % Inhibition, Trypanosoma brucei ([7]; 10 μM): 100% | % Inhibition, Trypanosoma brucei ([7]; 30 μM): 100%

CN(NC(=O)CCCCC(=O)NN(C)c1cc(-c2ccccn2)nc(-c2ccccn2)c1)c1cc(-c2ccccn2)nc(-c2ccccn2)c1.Cc1ccncc1.Cc1ccncc1.F[B-](F)(F)F.F[B-](F)(F)F.F[B-](F)(F)F.F[B-](F)(F)F.[Pt+2].[Pt+2] [W, Adipoyl-Linked-Bis[4-Picoline(4′-(1 -Methylhydrazino)-2,2′:6′,2″-Terpyridine) Platinum(II)] Tetrafluoroborate]
IC50 [1]: > 100 µM | IC50 [2]: 58 µM | RF resistance factor: IC50 resistant line/IC50 parent line [2]: 1.2 | IC50 [3]: 48 µM | IC50 [4]: 46 µM | RF resistance factor: IC50 resistant line/IC50 parent line [4]: 0.9 | IC50 [5]: 17 µM | % Inhibition, Trypanosoma cruzi (T. cruzi (MHOM/BR/00/Y); 1 μM): 0% | % Inhibition, Trypanosoma cruzi (T. cruzi (MHOM/BR/00/Y); 3 μM): 0% | % Inhibition, Trypanosoma cruzi (T. cruzi (MHOM/BR/00/Y); 10 μM): 0% | % Inhibition, Trypanosoma cruzi (T. cruzi (MHOM/BR/00/Y); 30 μM): 8.3% | IC50 [6]: 10.5 µM | RF resistance factor: IC50 resistant line/IC50 parent line [6]: 0.6 | % Inhibition, Trypanosoma brucei ([7]; 0.1 μM): 0% | % Inhibition, Trypanosoma brucei ([7]; 0.3 μM): 0% | % Inhibition, Trypanosoma brucei ([7]; 1 μM): 0% | % Inhibition, Trypanosoma brucei ([7]; 3 μM): 0% | % Inhibition, Trypanosoma brucei ([7]; 10 μM): 59.8% | % Inhibition, Trypanosoma brucei ([7]; 30 μM): 100%
